Here are results for 66 molecules from patent US8158621B2, “Methods of treating or preventing autoimmune diseases with 2,4-pyrimidinediamine compounds” (Rigel Pharmaceuticals, Inc., priority 2002, dated 2012).

SMILES strings stand for the structures.

One experiment deals with cultured human mast cells (CHMC). Description: CHMC low cell density IgE activation: tryptase assay. The format is cell-based. The settings on record: Homo sapiens, Mast cell, Low Density; read-out: CHMC anti-IgE Tryptase. As for the experimental part:
Pellet CHMC cells (980 rpm, 10 min) and resuspend in pre-warmed MT. Add 65 ul of cells to each 96-well plate. Depending on the degranulation activity for each particular CHMC donor, load 1000-1500 cells/well. Mix four times followed by a 1 hr incubation at 37° C. […] Stimulate cells by adding 25 ul of 6× anti-IgE solution to the appropriate plates. Add 25 ul MT to un-stimulated control wells. Mix twice following addition of the anti-IgE. Incubate at 37° C. for 30 minutes. […] Spin plates at 1000 rpm for 10 min to pellet cells. Transfer 25 ul of supernatant to a 96-well black bottom plate and add 100 ul of freshly diluted tryptase substrate solution to each well. Incubate plates at room temperature for 30 min.
Regarding `Fc1cnc(Cl)nc1Nn1cccc1` [Compound R935275], the IC50 is more than 10000 nM. On the same count and under the same terms, the figure for `OCCOc1ccc(Nc2ncc(F)c(Nc3cccc(O)c3)n2)cc1` [Compound R935155] is 401 nM; for `CN(C=C1C=CC=C(Nc2nc(Cl)ncc2F)C1)C(=O)OC(C)(C)C` [Compound R940315] it is more than 10000 nM; for `Cc1ccnc(Nc2nc(Cl)ncc2F)c1` [Compound R920401] it is more than 10000 nM.

The same experiment, now with this note: low cell density; read-out: CHMC anti-IgE Tryptase.
Turning to `C[C@@H]1Oc2ccc(Nc3nc(Nc4ccc(CN)cc4)ncc3F)cc2NC1=O` [Compound R950461], the IC50 amounted to 142 nM. Consider `C[C@@H]1Oc2ccc(Nc3nc(N[C@@H]4CCCC[C@H]4N)ncc3F)cc2NC1=O` [Compound R950441], for which the IC50 was more than 10000 nM. The same measure, in the same setting: the figure for `COc1ccc(Nc2nc(Nc3ccc4[nH]ncc4c3)ncc2F)cc1OC` [Compound R935441] is 586 nM; for `CNC(=O)COc1cccc(Nc2ncc(F)c(Nc3ccc(OC4CCC(NC(=O)OC(C)(C)C)CC4)c(Cl)c3)n2)c1` (mixture of isomers) [Compound R945384] it is 913 nM; for `CNC(=O)COc1cccc(Nc2ncc(F)c(Nc3ccc(OC)c(Cl)c3)n2)c1` [Compound R926989] it is 199 nM. Consider `OCCCn1ncc2ccc(Nc3ncc(F)c(Nc4ccc(Cl)c(Cl)c4)n3)cc21` [Compound R935405], for which the IC50 was determined as 389 nM. For `CCN(CC)CCNC(=O)c1ccc(Nc2ncc(F)c(Nc3ccc4c(c3)NC(=O)[C@H](C)O4)n2)cc1` [Compound R950446], the IC50 is 148 nM. In the case of `Fc1cnc(NC2CC2)nc1NC1CC1` [Compound R945376], the IC50 was more than 10000 nM.

As to `C[C@@H]1Oc2ccc(Nc3nc(Nc4ccc(C(N)=O)cc4)ncc3F)cc2NC1=O` [Compound R950452], the IC50 worked out at 101 nM. On the same count and under the same terms, the figure for `Fc1cc(Nc2nc(Nc3ccc4[nH]ncc4c3)ncc2F)ccc1Cl` [Compound R935415] is 237 nM; for `COc1ccc(Nc2nc(Nc3cc(Cl)cc(Cl)c3)ncc2F)cc1Cl` [Compound R926990] it is 11300 nM. For `CC1(C)C(=O)NC(=O)c2cc(Nc3nc(Nc4ccc(CN)cc4)ncc3F)ccc21` [Compound R950463], the IC50 is 2460 nM. Consider `CCN(CC)CCNC(=O)c1ccc(Nc2ncc(F)c(Nc3ccc4c(c3)NC(=O)C(F)(F)O4)n2)cc1` [Compound R950449], for which the IC50 was 668 nM. Still for that read-out and setting: next, `Fc1ccc(Nc2nc(Nc3ccc4[nH]ncc4c3)ncc2F)cc1Cl` [Compound R935428]: 1270 nM; `CC(C)(C)OC(=O)NCc1ccc(Nc2ncc(F)c(Nc3ccc4c(c3)NC(=O)C(F)(F)O4)n2)cc1` [Compound R950464]: 244 nM. Same read-out and setting: next, `Cn1ncc2ccc(Nc3ncc(F)c(Nc4ccc(F)c(F)c4)n3)cc21` [Compound R935401]: 510 nM. As to `CNC(=O)COc1cccc(Nc2ncc(F)c(Nc3ccc(OC4CCC(N)CC4)c(Cl)c3)n2)c1` (mixture of isomers) [Compound R945403], the IC50 amounted to 1700 nM. The same measure, in the same setting: the figure for `COc1cc(Nc2nc(Nc3ccc(C(N)=O)cc3)ncc2F)cc(OC)c1` [Compound R950450] is 1090 nM; for `CNC(=O)COc1cccc(Nc2ncc(F)c(Nc3ccc4c(c3)NC(=O)C(F)(F)O4)n2)c1` [Compound R945415] it is 46 nM; for `COC(=O)N1CCN(c2ccc(Nc3ncc(F)c(NC4CCC4)n3)cc2)CC1` [Compound R945386] it is 1390 nM. Still for that read-out and setting: the figure for `NC(=O)c1ccc(Nc2ncc(F)c(Nc3ccc4c(c3)NC(=O)C(F)(F)O4)n2)cc1` [Compound R950455] is 217 nM; for `CCN(C(C)=O)c1ccc(Nc2ncc(F)c(Nc3ccc4c(n3)NC(=O)CO4)n2)cc1` [Compound R945421] it is 371 nM; for `COc1ccc(Nc2ncc(F)c(Nc3ccc4c(c3)C(NC(=O)OC(C)(C)C)CCO4)n2)cc1Cl` (racemic) [Compound R950427] it is 1900 nM. In the case of `COc1c(Cl)cc(Nc2ncc(F)c(Nc3ccc(Cl)c(Cl)c3)n2)cc1Cl` [Compound R927058], the IC50 worked out at 12200 nM.

For the molecule `COC(=O)N1CCN(c2ccc(Nc3nc(NC4CC4)ncc3F)cc2)CC1` [Compound R945373], the IC50 is more than 10000 nM. Turning to `COc1ccc(Nc2nc(Nc3ccc4cnn(CCCO)c4c3)ncc2F)cc1Cl` [Compound R935407], the IC50 was found to be 393 nM. As to `COc1cc(Nc2ncc(F)c(Nc3ccc(N4CCOCC4)c(Cl)c3)n2)cc(C(F)(F)F)c1` [Compound R926987], the IC50 is 10000 nM.

As for `COc1c(Cl)cc(Nc2ncc(F)c(Nc3ccc4c(c3)C(=O)NC(=O)C4(C)C)n2)cc1Cl` [Compound R908955], the IC50 was 293 nM. Same read-out and setting: next, `Cc1cc(Nc2ncc(F)c(Nc3ccc4cnn(C)c4c3)n2)cc(Cl)c1O` [Compound R935395]: 276 nM.

In the case of `CCOC(=O)CCn1ncc2ccc(Nc3ncc(F)c(Nc4ccc(OC)c(Cl)c4)n3)cc21` [Compound R935406], the IC50 worked out at 1170 nM. On to `COc1cc(Nc2nc(Nc3ccc4c(c3)C(N)CCO4)ncc2F)cc(OC)c1` (racemic) [Compound R950436], for which the IC50 stood at 5530 nM. Regarding `CC(C)(C)OC(=O)NC1CCOc2ccc(Nc3nc(Nc4ccc(Cl)c(Cl)c4)ncc3F)cc21` (racemic) [Compound R950429], the IC50 was 3970 nM. Still for that read-out and setting: the figure for `COc1c(Cl)cc(Nc2ncc(F)c(Nc3ccc(OC(F)(F)F)c(Cl)c3)n2)cc1Cl` [Compound R927055] is more than 10000 nM; for `CNC(=O)COc1cccc(Nc2ncc(F)c(Nc3ccc(N(C)C(C)=O)cc3)n2)c1` [Compound R945377] it is 1120 nM; for `COc1ccc(Nc2nc(Nc3ccc4c(cnn4C)c3)ncc2F)cc1OC` [Compound R935412] it is 696 nM. For the molecule `COc1cc(Nc2ncc(F)c(Nc3ccc4c(c3)NC(=O)C(C)(C)O4)n2)cc(OC)c1` [Compound R927073], the IC50 was determined as 66.8 nM. In the case of `CC(=O)N(C)c1ccc(Nc2nc(NC3CC3)ncc2F)cc1` [Compound R945375], the IC50 was more than 10000 nM. Same read-out and setting: next, `Fc1ccc(Nc2nc(Nc3ccc4cn[nH]c4c3)ncc2F)cc1F` [Compound R935400]: 502 nM. `COc1c(C)cc(Nc2ncc(F)c(Nc3ccc4c(n3)NC(=O)C(C)(C)O4)n2)cc1C` [Compound R940395]: the IC50 is more than 10000 nM. Same read-out and setting: the figure for `CC(=O)N(C)c1ccc(Nc2nc(NC3CCC3)ncc2F)cc1` [Compound R945379] is more than 10000 nM; for `CC(=O)N1CCN(c2ccc(Nc3nc(NC4CC4)ncc3F)cc2)CC1` [Compound R945381] it is more than 10000 nM; for `Cc1cc(Nc2ncc(F)c(Nc3ccc4c(c3)NC(=O)C(C)(C)O4)n2)cc(C)c1C` [Compound R926994] it is 61 nM. The same measure, in the same setting: the figure for `CC(=O)N1CCN(c2ccc(Nc3nc(NC4CCC4)ncc3F)cc2)CC1` [Compound R945382] is more than 10000 nM; for `CNC(=O)COc1cccc(Nc2ncc(F)c(Nc3ccc4c(c3)C(NS(C)(=O)=O)CCO4)n2)c1` (racemic) [Compound R950494] it is more than 10000 nM; for `COc1cc(Nc2nc(Nc3ccc4c(cnn4C)c3)ncc2F)ccc1F` [Compound R935410] it is 417 nM. On the same count and under the same terms, next, `CC1(C)Oc2ccc(Nc3ncc(F)c(Nc4ccc(Cl)c(Cl)c4)n3)cc2NC1=O` [Compound R927059]: 291 nM; `CC(=O)N(C)c1ccc(Nc2ncc(F)c(NC3CCC3)n2)cc1` [Compound R945383]: 985 nM; `CNC(=O)CCn1ncc2cc(Nc3ncc(F)c(Nc4ccc(Cl)c(Cl)c4)n3)ccc21` [Compound R935390]: 544 nM. Regarding `COc1ccc(Nc2nc(Nc3cc(C)c(C)c(C)c3)ncc2F)cc1Cl` [Compound R926993], the IC50 stood at 689 nM. As to `Cn1ncc2cc(Nc3ncc(F)c(Nc4ccc(Cl)c(F)c4)n3)ccc21` [Compound R935411], the IC50 was more than 10000 nM. Consider `Cn1ncc2cc(Nc3ncc(F)c(Nc4ccc(F)c(Cl)c4)n3)ccc21` [Compound R935426], for which the IC50 was more than 10000 nM. In the case of `CNC(=O)COc1cccc(Nc2ncc(F)c(Nc3ccc4c(c3)C(NC(=O)CN(C)C)CCO4)n2)c1` (racemic) [Compound R950416], the IC50 is 2270 nM. `COC(=O)c1ccc(Cn2ncc3ccc(Nc4ncc(F)c(Nc5ccc6c(c5)NC(=O)C(C)(C)O6)n4)cc32)c(OC)c1` [Compound R935442]: the IC50 was found to be 701 nM.

As for `CNC(=O)CCn1ncc2ccc(Nc3ncc(F)c(Nc4ccc(OC)c(Cl)c4)n3)cc21` [Compound R935409], the IC50 is 1170 nM. On the same count and under the same terms, next, `CCN(CC)CCNC(=O)c1ccc(Nc2ncc(F)c(Nc3ccc(Cl)c(Cl)c3)n2)cc1` [Compound R950445]: 379 nM; `COc1cc(Nc2ncc(F)c(Nc3ccc4cn[nH]c4c3)n2)cc(OC)c1` [Compound R935423]: 167 nM. As for `CCNC1CCC(Oc2ccc(Nc3nc(Nc4cccc(OCC(=O)NC)c4)ncc3F)cc2Cl)CC1` (mixture of isomers) [Compound R945411], the IC50 is 2860 nM. For `Cc1cc(Nc2ncc(F)c(Nc3ccc4c(c3)OCCO4)n2)cc(Cl)c1O` [Compound R940393], the IC50 was 5260 nM.

For the molecule `Cc1cccc(C)c1Nc1ncc(F)c(Nc2ccc(Cl)c(Cl)c2)n1` [Compound R927079], the IC50 worked out at 599 nM.

Regarding `Cn1ncc2ccc(Nc3nc(Cl)ncc3F)cc21` [Compound R935394], the IC50 is more than 10000 nM.

On to `COc1cc(Nc2ncc(F)c(Nc3ccc4c(c3)C(NC(=O)OC(C)(C)C)CCO4)n2)cc(OC)c1` (racemic) [Compound R950425], for which the IC50 was 1150 nM. On to `CC1Oc2ccc(Nc3nc(Nc4ccc5c(c4)C(N)CCO5)ncc3F)cc2NC1=O` (mixture of isomers) [Compound R950438], for which the IC50 is 888 nM.
